Columns and labels:
Cbl-b [1] = molecular target: T1, Cbl-b (Homo sapiens, UniProt Q13191); experiment: Cbl-b inhibition assay (Cbl-b activity assay, FRET, Biological Example 1; 100 mM NaCl, 60 nM Src kinase); format: biochemical; conditions: upper bound stated in text lists; read-out: IC50 values in the Cbl-b inhibition assay of Biological Example 1
Outline: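 Steps: Src kinase phosphorylates N-terminal biotinylated Avi-tagged Cbl-b; phosphorylated Cbl-b binds Bodipy-fluorescein ubiquitin-loaded UbcH5B; streptavidin-terbium on Cbl-b sits close to the fluorescein label, producing FRET. Inhibitors block UbcH5B-Ub binding.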

Cbl-b (residues 36-427) = Cbl-b (residues 36-427) (Homo sapiens, UniProt Q13191); experiment: Cbl-b binding assay (SPR, Biacore T200); conditions: 20° C., 1:1 binding model
Cbl-b (residues 36-427), sequence (Q13191 36-427): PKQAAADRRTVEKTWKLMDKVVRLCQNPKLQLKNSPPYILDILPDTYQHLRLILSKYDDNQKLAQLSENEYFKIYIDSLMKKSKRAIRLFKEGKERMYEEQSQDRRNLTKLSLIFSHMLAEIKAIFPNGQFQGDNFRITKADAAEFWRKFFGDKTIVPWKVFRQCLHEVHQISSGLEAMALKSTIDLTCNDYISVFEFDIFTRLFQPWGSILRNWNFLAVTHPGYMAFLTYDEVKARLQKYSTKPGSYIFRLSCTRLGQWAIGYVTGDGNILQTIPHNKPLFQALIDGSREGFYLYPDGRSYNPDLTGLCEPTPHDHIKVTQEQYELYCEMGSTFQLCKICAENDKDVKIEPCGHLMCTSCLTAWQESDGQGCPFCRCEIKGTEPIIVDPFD
Outline: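 NeutrAvidin capture chip, 20° C; 50 s injections at 50 μl/min, 90-180 s dissociation; 0.3 M NaCl regeneration. Asterisked column: 50 mM NaCl buffer and 30 nM Src kinase in place of 100 mM NaCl and 60 nM Src kinase. 1:1 fit.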

T-cell [2] = experiment: IL-2 secretion from T-cells co-stimulated with anti-CD3 and anti-CD28 antibody (Biological Example 2); format: cell-based, human; conditions: Homo sapiens, T-cell, fold change over baseline, primary human total T-cells, read-out: IL-2 secretion Anti-CD3/Anti-CD28 stimulation; for fold induction at 0.3 µM: 0.3 μM Cbl-b inhibitor; for fold induction at 1 µM: 1 μM Cbl-b inhibitor; for fold induction at 4 µM: 4 μM Cbl-b inhibitor
Outline: (§1)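 Values are fold-change over baseline: readings (IL-2 release, CD25 staining) from inhibitor-treated T-cells divided against untreated cells […]. No detailed procedure stated.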

Cbl-b [3] = molecular target: T1, Cbl-b; experiment: Cbl-b activity assay (Cbl-b inhibition assay), TR-FRET of Cbl-b interaction with UbcH5B-Ub; format: biochemical
Outline: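 Compound-treated Cbl-b was incubated 1.5 h with Src kinase (60 nM final; 30 nM for asterisked values, which also used 50 mM instead of 100 mM NaCl), 1 mM ATP and 5 mM MgCl2. Binding to fluorescent Ub-loaded UbcH5B (C85K mutant) was then read by TR-FRET after 1 h more.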

T-cell [4] = experiment: CD25 cell surface staining on T-cells co-stimulated with anti-CD3 and anti-CD28 antibody (Biological Example 2); format: cell-based, human; conditions: Homo sapiens, T-cell, fold change over baseline, primary human total T-cells, read-out: CD25 staining Anti-CD3/Anti-CD28 stimulation; for fold induction at 0.3 µM: 0.3 μM Cbl-b inhibitor; for fold induction at 1 µM: 1 μM Cbl-b inhibitor; for fold induction at 4 µM: 4 μM Cbl-b inhibitor
Outline: as §1

[5] = assay buffer with 100 mM NaCl, 60 nM Src kinase, read-out: Cbl-b activity IC50
[6] = * assay buffer containing 50 mM NaCl instead of 100 mM NaCl and 30 nM Src kinase instead of 60 nM, read-out: Cbl-b activity IC50 (μM)*

T1 sequence (Q13191 36-427): as above

SMILES | IC50 (Cbl-b [1]) [nM] | Kd (Cbl-b (residues 36-427)) [nM] | fold induction at 0.3 µM (T-cell [2]) | fold induction at 1 µM (T-cell [2]) | fold induction at 4 µM (T-cell [2]) | IC50 (Cbl-b [3]; [5]) [µM] | fold induction at 0.3 µM (T-cell [4]) | fold induction at 1 µM (T-cell [4]) | fold induction at 4 µM (T-cell [4]) | IC50 (Cbl-b [3]; [6]) [µM]
C[C@H](Sc1nncn1C)c1cccc(NC(=O)c2cccc(C(C)(F)F)n2)c1 [Compound 81, (S)-6-(1,1-difluoroethyl)-N-(3-(1-((4-methyl-4H-1,2,4-triazol-3-yl)thio)ethyl)phenyl)picolinamide] | ≤ 500 | 301 to 1000 | < 1 | < 1 | 2.51 to 5 | 0.1 to 0.3 | 1.01 to 1.3 | 1.51 to 1.75 | > 1.76 | 
CC(C)c1cccc(C(=O)Nc2cccc([C@H](C)Sc3nncn3C)c2)n1 [Compound 33, (S)-6-Isopropyl-N-(3-(1-((4-methyl-4H-1,2,4-triazol-3-yl)thio)ethyl)phenyl)picolinamide] | ≤ 500 | 301 to 1000 | 2.51 to 5 | 2.51 to 5 | > 7.5 | 0.1 to 0.3 | 1.01 to 1.3 | 1.01 to 1.3 | 1.01 to 1.3 | 0.301 to 1
C[C@H](Sc1nncn1C)c1cc(F)cc(N2Cc3c(cccc3C(F)(F)F)C2=O)c1 [Compound 168a, 2-[3-fluoro-5-[(1S)-1-[(4-methyl-1,2,4-triazol-3-yl)sulfanyl]ethyl]phenyl]-4-(trifluoromethyl)isoindolin-1-one] | ≤ 500 | 301 to 1000 | < 1 | 1.01 to 2.5 | < 1 | 0.1 to 0.3 | 1.01 to 1.3 | 1.01 to 1.3 | 1.01 to 1.3 | 
C[C@H](Sc1nncn1C)c1cccc(NC(=O)c2cc(C(F)(F)F)cc(C3CC3)n2)c1 [Compound 69, (S)-6-cyclopropyl-N-(3-(1-((4-methyl-4H-1,2,4-triazol-3-yl)thio)ethyl)phenyl)-4-(trifluoromethyl)picolinamide] | ≤ 500 | 3000 to 10000 | < 1 | < 1 | 1.01 to 2.5 | 0.301 to 1 | 1.01 to 1.3 | 1.01 to 1.3 | 1.31 to 1.5 | 
C[C@H](Cc1nncn1C)c1cccc(NC(=O)c2cc(C(=O)N3C[C@@H](O)[C@H](F)C3)ccn2)c1 [Compound 240, 4-((3R,4R)-3-fluoro-4-hydroxypyrrolidine-1-carbonyl)-N-(3-((K)-1-(4-methyl-4H-1,2,4-triazol-3-yl)propan-2-yl)phenyl)picolinamide] | ≤ 500 | 100 to 300 | < 1 | 1.01 to 2.5 | 2.51 to 5 | 0.1 to 0.3 | < 1 | 1.01 to 1.3 | 1.31 to 1.5 | 
Cc1[nH]cnc1CC(C)c1cccc(N2Cc3c(cccc3C(F)(F)F)C2=O)c1 (centres unmarked) [Compound 272, 2-[3-[1-(5-methyl-1H-imidazol-4-yl)propan-2-yl]phenyl]-4-(trifluoromethyl)isoindolin-1-one] | ≤ 500 | 3000 to 10000 | < 1 | < 1 | < 1 | 0.301 to 1 | < 1 | < 1 | 1.01 to 1.3 | 
C[C@H](Cc1nncn1C)c1cccc(NC(=O)c2cc(O[C@H]3CC[C@@H](O)C3)ccn2)c1 [Compound 206, 4-((1S,3R)-3-hydroxycyclopentyloxy)-N-(3-((R)-1-(4-methyl-4H-1,2,4-triazol-3-yl)propan-2-yl)phenyl)picolinamide] | ≤ 1000 | 301 to 1000 | 1.01 to 2.5 | 1.01 to 2.5 | 2.51 to 5 | 0.301 to 1 | 1.01 to 1.3 | 1.01 to 1.3 | 1.01 to 1.3 | 
C[C@H](Sc1nncn1C)c1cccc(NC(=O)c2cc(C(=O)N3CC[C@H](O)C3)ccn2)c1 [Compound 140, 4-[[(3S)-3-hydroxypyrrolidin-1-yl]carbonyl]-N-[3-[(1S)-1-[(4-methyl-4H-1,2,4-triazol-3-yl)sulfanyl]ethyl]phenyl]pyridine-2-carboxamide] | ≤ 500 | 301 to 1000 | < 1 | < 1 | < 1 | 0.1 to 0.3 | 1.01 to 1.3 | 1.01 to 1.3 | 1.01 to 1.3 | 
Cc1ncc(C(=O)Nc2cccc([C@H](C)Sc3nncn3C)c2)nc1C1CC1 [Compound 70, (S)-6-cyclopropyl-5-methyl-N-(3-(1-((4-methyl-4H-1,2,4-triazol-3-yl)thio)ethyl)phenyl)pyrazine-2-carboxamide] | ≤ 500 | 301 to 1000 | < 1 | 1.01 to 2.5 | 2.51 to 5 | 0.1 to 0.3 | 1.31 to 1.5 | 1.31 to 1.5 | 1.51 to 1.75 | 
C[C@H](Cc1nncn1C)c1cccc(NC(=O)c2cccc(S(C)(=O)=O)n2)c1 [Compound 185, (R)-N-(3-(1-(4-methyl-4H-1,2,4-triazol-3-yl)propan-2-yl)phenyl)-6-(methylsulfonyl)picolinamide] | ≤ 1000 | 1000 to 3000 | 1.01 to 2.5 | 1.01 to 2.5 | 2.51 to 5 | 0.301 to 1 | 1.01 to 1.3 | > 1.76 | > 1.76 | 
C[C@H](Sc1nncn1C)c1ccnc(NC(=O)c2cc3c(C(F)(F)F)cccc3[nH]2)c1 [Compound 120, N-[4-[(1S)-1-[(4-methyl-1,2,4-triazol-3-yl)sulfanyl]ethyl]-2-pyridyl]-4-(trifluoromethyl)-1H-indole-2-carboxamide] | ≤ 500 | 301 to 1000 | 1.01 to 2.5 | 1.01 to 2.5 | 1.01 to 2.5 | 0.1 to 0.3 | < 1 | < 1 | < 1 | 
C[C@H](Sc1nncn1C)c1ccnc(N2Cc3c(cccc3C(F)(F)F)C2=O)c1 [Compound 172a, (S)-(4-(1-((4-methyl-4H-1,2,4-triazol-3-yl)thio)ethyl)pyridin-2-yl)-4-(trifluoromethyl)isoindolin-1-one] | ≤ 1000 | 1000 to 3000 | 2.51 to 5 | 2.51 to 5 | 2.51 to 5 | 0.301 to 1 | < 1 | < 1 | < 1 | 
C[C@H](Sc1nncn1C)c1cccc(NC(=O)c2cc(C(F)(F)F)ccn2)c1 [Compound 32, (S)-N-(3-(1-((4-Methyl-4H-1,2,4-triazol-3-yl)thio)ethyl)phenyl)-4-(trifluoromethyl)picolinamide] | ≤ 10000 | 1000 to 3000 | < 1 | 1.01 to 2.5 | 1.01 to 2.5 | 3 to 10 | 1.01 to 1.3 | 1.01 to 1.3 | 1.01 to 1.3 | 1 to 3
Cc1conc1C[C@@H](C)c1cccc(NC(=O)c2ccnc(C(F)(F)F)n2)c1 [Compound 213a, (R)-N-(3-(1-(4-methylisoxazol-3-yl)propan-2-yl)phenyl)-2-(trifluoromethyl)pyrimidine-4-carboxamide] | ≤ 500 | 100 to 300 | 1.01 to 2.5 | 1.01 to 2.5 | 2.51 to 5 | 0.1 to 0.3 | 1.01 to 1.3 | 1.01 to 1.3 | 1.01 to 1.3 | 
C[C@H](Cc1nncn1C)c1cccc(NC(=O)c2cc(C(=O)N3CC(O)C(F)(F)C3)ccn2)c1 (stereo partly drawn) [Compound 243, 4-(3,3-difluoro-4-hydroxypyrrolidine-1-carbonyl)-N-[3-[(2R)-1-(4-methyl-4H-1,2,4-triazol-3-yl)propan-2-yl]phenyl]pyridine-2-carboxamide] | ≤ 500 | > 10000 | < 1 | < 1 | 2.51 to 5 | 0.301 to 1 | < 1 | < 1 | 1.31 to 1.5 | 

From US20220324835A1 (Nurix Therapeutics, Inc., priority 2018, published 2022)
